Experiments:
[1] = molecular target: T1, AHR (Mus musculus, UniProt P30561); test: In vitro assay 3: antagonism in mouse cell line (AHR transactivation, firefly luciferase reporter, kynurenic acid prestimulated); format: cell-based; settings: mouse Hepa 1c1c7 cells, 200 μM kynurenic acid, 20 hours, read-out: AHR Antagonism Mouse IC50
T1 sequence (P30561 1-848 P471L/N533S/M589L): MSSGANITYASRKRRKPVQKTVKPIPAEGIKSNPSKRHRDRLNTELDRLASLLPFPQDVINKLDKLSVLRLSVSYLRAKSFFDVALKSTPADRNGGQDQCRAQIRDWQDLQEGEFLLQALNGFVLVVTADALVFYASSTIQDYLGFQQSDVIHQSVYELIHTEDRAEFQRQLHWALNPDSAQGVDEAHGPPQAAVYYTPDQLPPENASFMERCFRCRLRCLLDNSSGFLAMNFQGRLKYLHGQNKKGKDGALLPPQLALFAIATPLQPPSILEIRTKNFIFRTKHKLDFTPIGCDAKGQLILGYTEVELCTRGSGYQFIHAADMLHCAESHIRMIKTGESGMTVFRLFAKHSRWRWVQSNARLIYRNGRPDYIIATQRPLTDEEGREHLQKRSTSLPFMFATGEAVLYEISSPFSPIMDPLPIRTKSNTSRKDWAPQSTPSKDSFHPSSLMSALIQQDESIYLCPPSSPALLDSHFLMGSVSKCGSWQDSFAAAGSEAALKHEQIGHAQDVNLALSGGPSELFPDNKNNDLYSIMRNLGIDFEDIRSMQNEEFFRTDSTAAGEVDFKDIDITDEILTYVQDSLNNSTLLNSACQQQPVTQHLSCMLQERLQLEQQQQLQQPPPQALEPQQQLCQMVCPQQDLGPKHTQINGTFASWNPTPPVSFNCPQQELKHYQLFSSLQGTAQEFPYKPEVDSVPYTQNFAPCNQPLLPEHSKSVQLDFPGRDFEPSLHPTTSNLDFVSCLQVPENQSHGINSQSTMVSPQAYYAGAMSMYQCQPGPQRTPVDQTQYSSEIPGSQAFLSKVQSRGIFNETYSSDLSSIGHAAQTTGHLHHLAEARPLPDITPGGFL
Method in brief: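 Kynurenic acid-prestimulated mouse reporter cells; stable AHR-inducible firefly luc construct with DRE sites in promoter. No-agonist wells = positive inhibition ctrl. Luminescence normalized to pos/neg ctrls; n>1 reported as mean or median.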

[2] = molecular target: T2, AHR (Homo sapiens, UniProt P35869); test: In vitro assay 1: antagonism in human cell line (AHR transactivation, firefly luciferase reporter, kynurenic acid prestimulated); format: cell-based; settings: AHR Antagonism Human IC50 [M]
T2 construct: U87 MG glioblastoma cells (ATCC #HTB-14) endogenously expressing AHR; endogenous in cells; host or cells: U87 MG glioblastoma cells (ATCC #HTB-14)
T2 sequence (P35869 11-848): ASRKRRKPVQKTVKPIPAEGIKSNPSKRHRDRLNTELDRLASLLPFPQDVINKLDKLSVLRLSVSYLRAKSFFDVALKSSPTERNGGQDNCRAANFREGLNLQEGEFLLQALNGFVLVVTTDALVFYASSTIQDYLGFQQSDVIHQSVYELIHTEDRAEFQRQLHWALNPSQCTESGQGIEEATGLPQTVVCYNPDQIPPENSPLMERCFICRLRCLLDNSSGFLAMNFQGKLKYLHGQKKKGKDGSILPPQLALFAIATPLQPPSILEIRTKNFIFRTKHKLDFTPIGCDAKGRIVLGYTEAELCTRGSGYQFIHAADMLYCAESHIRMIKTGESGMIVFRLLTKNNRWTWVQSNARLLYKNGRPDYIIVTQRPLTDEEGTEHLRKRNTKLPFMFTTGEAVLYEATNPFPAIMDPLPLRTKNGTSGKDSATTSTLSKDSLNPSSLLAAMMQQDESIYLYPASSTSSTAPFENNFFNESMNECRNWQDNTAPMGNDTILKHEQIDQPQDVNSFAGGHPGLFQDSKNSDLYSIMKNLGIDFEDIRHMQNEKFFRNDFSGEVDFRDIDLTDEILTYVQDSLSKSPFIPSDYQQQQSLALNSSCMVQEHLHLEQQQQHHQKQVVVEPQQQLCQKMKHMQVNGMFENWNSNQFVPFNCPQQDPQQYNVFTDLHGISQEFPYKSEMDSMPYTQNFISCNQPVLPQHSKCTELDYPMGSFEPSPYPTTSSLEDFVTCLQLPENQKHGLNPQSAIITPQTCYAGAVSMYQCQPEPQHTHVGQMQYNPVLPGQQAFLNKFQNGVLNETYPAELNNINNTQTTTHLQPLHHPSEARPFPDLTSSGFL
Method in brief: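 Antagonism measured as loss of kynurenic acid-driven firefly luciferase from DRE reporter in stably transfected U87 MG cells; constitutive Renilla signal monitors cytotoxicity. Positive/negative control normalization, staurosporine 5 μM with 150 μM kynurenic acid as inhibition control; replicates given as mean or median.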

Row | IC50 [1] | IC50 [2] | SMILES
1 | 1.47 nM | 9.83e-10 M | COc1ccc(-c2nc3c4cccc(Br)c4nc(N[C@@H]4COCCNC4=O)n3n2)cc1 [Example 699, (6R)-6-{[7-bromo-2-(4-methoxyphenyl)[1,2,4]triazolo[1,5-c]quinazolin-5-yl]amino}-1,4-oxazepan-5-one]
2 | 1.8 nM | 4.84e-09 M | O=C1NCCNC[C@H]1Nc1nc2c(C(F)(F)F)cccc2c2nc(-c3ccc(Cl)cc3OC(F)(F)F)nn12 [Example 710, (6R)-6-({2-[4-chloro-2-(trifluoromethoxy)phenyl]-7-(trifluoromethyl)[1,2,4]triazolo[1,5-c]quinazolin-5-yl}amino)-1,4-diazepan-5-one]
3 | 134 nM | 1.64e-07 M | CS(=O)(=O)c1ccc(-c2nc3c4ccccc4nc(N[C@@H]4CNCCNC4=O)n3n2)cc1 [Example 714, (6R)-6-({2-[4-(methanesulfonyl)phenyl][1,2,4]triazolo[1,5-c]quinazolin-5-yl}amino)-1,4-diazepan-5-one]
4 | 14.8 nM | 1.13e-08 M | CS(=O)(=O)c1ccc(-c2nc3c4cccc(Br)c4nc(N[C@@H]4CNCCNC4=O)n3n2)cc1 [Example 715, (6R)-6-({7-bromo-2-[4-(methanesulfonyl)phenyl][1,2,4]triazolo[1,5-c]quinazolin-5-yl}amino)-1,4-diazepan-5-one]
5 | 0.95 nM | 7.05e-10 M | N#Cc1ccc(-c2nc3c4cccc(Br)c4nc(N[C@@H]4CNCCNC4=O)n3n2)cc1 [Example 717, 4-(7-bromo-5-{[(6R)-5-oxo-1,4-diazepan-6-yl]amino}[1,2,4]triazolo[1,5-c]quinazolin-2-yl)benzonitrile]
6 | 8.12 nM | 1.93e-08 M | N#Cc1ccc(-c2nc3c4ccccc4nc(N[C@@H]4CNCCNC4=O)n3n2)cc1 [Example 718, 4-(5-{[(6R)-5-oxo-1,4-diazepan-6-yl]amino}[1,2,4]triazolo[1,5-c]quinazolin-2-yl)benzonitrile]
7 | 239 nM | 9.56e-06 M | O=C1NCCNC[C@H]1Nc1nc2ccccc2c2nc(-c3cc(F)ccc3OC(F)(F)F)nn12 [Example 719, (6R)-6-({2-[5-fluoro-2-(trifluoromethoxy)phenyl][1,2,4]triazolo[1,5-c]quinazolin-5-yl}amino)-1,4-diazepan-5-one]
8 | 63.8 nM | 1.45e-07 M | O=C1NCCNC[C@H]1Nc1nc2ccccc2c2nc(-c3ccccc3OC(F)(F)F)nn12 [Example 720, (6R)-6-({2-[2-(trifluoromethoxy)phenyl][1,2,4]triazolo[1,5-c]quinazolin-5-yl}amino)-1,4-diazepan-5-one]
9 | 10.6 nM | 2.47e-09 M | COc1ccc(-c2nc3c4cccc(C#N)c4nc(N[C@@H]4CCCCNC4=O)n3n2)cc1 [Example 721, 2-(4-methoxyphenyl)-5-{[(3R)-2-oxoazepan-3-yl]amino}[1,2,4]triazolo[1,5-c]quinazoline-7-carbonitrile]
10 | 6.63 nM | 7.2e-09 M | COc1ccc(-c2nc3c4ccccc4nc(N[C@@H]4CCCCNC4=O)n3n2)cc1C(F)(F)F [Example 722, (3R)-3-({2-[4-methoxy-3-(trifluoromethyl)phenyl][1,2,4]triazolo[1,5-c]quinazolin-5-yl}amino)azepan-2-one]
11 | 6.14 nM | 1.32e-09 M | Cn1cc(-c2nc3c4cccc(C(F)(F)F)c4nc(N[C@@H]4COCCNC4=O)n3n2)cn1 [Example 732, (6R)-6-{[2-(1-methyl-1H-pyrazol-4-yl)-7-(trifluoromethyl)[1,2,4]triazolo[1,5-c]quinazolin-5-yl]amino}-1,4-oxazepan-5-one]
12 | 6640 nM | 2.58e-07 M | CN1CC[C@@H](Nc2nc3c(C(F)(F)F)cccc3c3nc(-c4cnn(C)c4)nn23)C1=O [Example 733, (3R)-1-methyl-3-{[2-(1-methyl-1H-pyrazol-4-yl)-7-(trifluoromethyl)[1,2,4]triazolo[1,5-c]quinazolin-5-yl]amino}pyrrolidin-2-one]
13 | 8.92 nM | 3.94e-09 M | Cc1c(-c2nc3c4cccc(C(F)(F)F)c4nc(N[C@@H]4CCCCNC4=O)n3n2)cnn1C [Example 734, (3R)-3-{[2-(1,5-dimethyl-1H-pyrazol-4-yl)-7-(trifluoromethyl)[1,2,4]triazolo[1,5-c]quinazolin-5-yl]amino}azepan-2-one]
14 | 9.2 nM | 7.1e-09 M | Cn1ccc(-c2nc3c4cccc(C(F)(F)F)c4nc(N[C@@H]4CCCCNC4=O)n3n2)n1 [Example 735, (3R)-3-{[2-(1-methyl-1H-pyrazol-3-yl)-7-(trifluoromethyl)[1,2,4]triazolo[1,5-c]quinazolin-5-yl]amino}azepan-2-one]
15 | 0.669 nM | 7.84e-10 M | O=C1NCCCC[C@H]1Nc1nc2c(C(F)(F)F)cccc2c2nc(-c3cnn(C(F)F)c3)nn12 [Example 736, (3R)-3-({2-[1-(difluoromethyl)-1H-pyrazol-4-yl]-7-(trifluoromethyl)[1,2,4]triazolo[1,5-c]quinazolin-5-yl}amino)azepan-2-one]
16 | 15.1 nM | 7.64e-09 M | O=C1NCCCC[C@H]1Nc1nc2c(C(F)(F)F)cccc2c2nc(-c3cc[nH]n3)nn12 [Example 737, (3R)-3-{[2-(1H-pyrazol-3-yl)-7-(trifluoromethyl)[1,2,4]triazolo[1,5-c]quinazolin-5-yl]amino}azepan-2-one]
17 | 1.03 nM | 3.4e-09 M | CCn1nc(C)c(-c2nc3c4cccc(C(F)(F)F)c4nc(N[C@@H]4CCCCNC4=O)n3n2)c1C [Example 738, (3R)-3-{[2-(1-ethyl-3,5-dimethyl-1H-pyrazol-4-yl)-7-(trifluoromethyl)[1,2,4]triazolo[1,5-c]quinazolin-5-yl]amino}azepan-2-one]
18 | 1.4 nM | 6.64e-10 M | CN1CCCC[C@@H](Nc2nc3c(C(F)(F)F)cccc3c3nc(-c4cnn(C)c4)nn23)C1=O [Example 739, (3R)-1-methyl-3-{[2-(1-methyl-1H-pyrazol-4-yl)-7-(trifluoromethyl)[1,2,4]triazolo[1,5-c]quinazolin-5-yl]amino}azepan-2-one]
19 | 1.65 nM | 1.22e-09 M | Cc1cc(-c2nc3c4cccc(C(F)(F)F)c4nc(N[C@@H]4CCCCNC4=O)n3n2)n(C)n1 [Example 740, (3R)-3-{[2-(1,3-dimethyl-1H-pyrazol-5-yl)-7-(trifluoromethyl)[1,2,4]triazolo[1,5-c]quinazolin-5-yl]amino}azepan-2-one]
20 | 1.41 nM | 7.02e-10 M | O=C1NCCCC[C@H]1Nc1nc2c(C(F)(F)F)cccc2c2nc(-c3cnn(C4CCC4)c3)nn12 [Example 741, (3R)-3-{[2-(1-cyclobutyl-1H-pyrazol-4-yl)-7-(trifluoromethyl)[1,2,4]triazolo[1,5-c]quinazolin-5-yl]amino}azepan-2-one]
21 | 1.9 nM | 8.31e-10 M | O=C1NCCCC[C@H]1Nc1nc2c(C(F)(F)F)cccc2c2nc(-c3cnn(CC4CC4)c3)nn12 [Example 742, (3R)-3-({2-[1-(cyclopropylmethyl)-1H-pyrazol-4-yl]-7-(trifluoromethyl)[1,2,4]triazolo[1,5-c]quinazolin-5-yl}amino)azepan-2-one]
